Measurements from article PMC6544596 (Drugs in R&D, 2019).
Like-named read-outs stand apart in the source and are kept apart here.

Tests used:
PDGFR-β = conditions: cited from earlier work; for IC50: read-out: IC50 PDGFR-β
PDGFR-α = conditions: cited from earlier work
DDR1/2 = conditions: read-out: IC50 DDR1/2; cited from earlier work
Abl = conditions: read-out: IC50 Abl; cited from earlier work
[1] = Pharmacokinetics of a single intraperitoneal dose in mice; format: in vivo, C57BL/6J mice; conditions: for CNS penetrance (in words): Fig. 8 summary of kinetics profiling in animal models; for time after administration at which agents are completely washed out of the brain: IP administration; for Tmax: brain and plasma; for Kp: brain/plasma
APP mice = test: Aβ and tau levels in transgenic APP mice; format: in vivo, mouse; conditions: 3 consecutive weeks; for Insoluble human Aβ vs DMSO (in words): p < 0.01, 0.001
A53T mice = test: α-Synuclein, HVA and dopamine levels in transgenic A53T mice; format: in vivo, mouse
SRC = conditions: cited from earlier work; for IC50: read-out: IC50 SRC
c-Kit = conditions: read-out: IC50 c-Kit; cited from earlier work
[2] = system: rat B35 neuroblastoma transfected with Aβ42; test: Aβ42 ELISA in Aβ42-transfected B35 neuroblastoma cells; format: cell-based; conditions: 10 µM, 24 h
DDR2 = conditions: read-out: IC50 DDR2; cited from earlier work
[3] = male, C57BL/6J, mouse, ip, 5 mg/kg
[4] = male, C57BL/6J, mouse, plasma, ip, 5 mg/kg
[5] = single IP dose 1.25 mg/kg, mice
[6] = male, C57BL/6J, mouse, ip, 10 mg/kg
[7] = male, C57BL/6J, mouse, plasma, ip, 10 mg/kg
[8] = 4- to 7-month-old APP mice, 10 mg/kg IP
[9] = 12-month-old A53T mice, 5 mg/kg IP once daily, 3 consecutive weeks

Compound: Cc1ccc(NC(=O)c2ccc(CN3CC[C@H](N(C)C)C3)c(C(F)(F)F)c2)cc1Nc1nccc(-c2cncnc2)n1 [Bafetinib]
- affinity to PDGFRβ (PDGFR-β): no affinity
- IC50 (PDGFR-α; read-out: IC50 to PDGFRα): 56 nM
- IC50 (DDR1/2): 220 nM
- IC50 (Abl): 5.8 nM
- CNS penetrance (in words) [1]: high
- time after administration at which agents are completely washed out of the brain ([1]; mice): 4 to 5 h
- Tmax [1, 3]: 1 h
- Kp [1, 3]: 0.12
- AUC [1, 4]: 69.5 µM·h
- Cmax [1, 4]: 19.4 µM
- AUC Brain ([1]; single IP dose 5 mg/kg, mice): 4.193
- C max Brain ([1]; single IP dose 5 mg/kg, mice): 2.362 µM
- reduction of the level of soluble Aβ40 compared to DMSO (APP mice; APP mice, 5 mg/kg IP): 9%
- reduction in the insoluble Aβ42 compared with DMSO (APP mice; APP mice, 5 mg/kg IP, not significant): 17%
- total tau levels compared with DMSO-treated APP mice (in words) (APP mice; APP mice, bafetinib 5 mg/kg or LCB 2.5 mg/kg IP): significant reduction
- levels of α-syn measured via ELISA (in words) (A53T mice; A53T mice, 10, 5 or 2.5 mg/kg IP daily): did not reduce
- ELISA homovanillic acid and dopamine measurements (in words) (A53T mice; A53T mice, bafetinib treatment IP daily): remain unchanged
- inhibition of Src (SRC): do not appear to inhibit Src
- IC50 (SRC): 1700 nM

Compound: COc1cc(Nc2c(C#N)cnc3cc(OCCCN4CCN(C)CC4)c(OC)cc23)c(Cl)cc1Cl [Bosutinib]
- IC50 (DDR1/2): > 4900 nM
- CNS penetrance (in words) [1]: medium-to-high
- Tmax [1, 3]: 1 h
- Kp [1, 3]: 0.05
- AUC [1, 4]: 51.7 µM·h
- Cmax [1, 4]: 19.4 µM
- AUC Brain ([1]; single IP dose 5 mg/kg, mice): 1.996
- C max Brain ([1]; single IP dose 5 mg/kg, mice): 0.918 µM

Compound: Oc1cccc(Nc2ccnc3cc(-c4cccc(CN5CCOCC5)c4)sc23)c1 [LCB-03-0110]
- IC50 (PDGFR-β): 409 nM
- IC50 (PDGFR-α; read-out: IC50 PDGFR-α): 69 nM
- IC50 (c-Kit): 591 nM
- IC50 (DDR1/2): 6 nM
- IC50 (Abl): > 1000 nM
- Cmax ([1]; read-out: C max Plasma, single IP dose 1.25 mg/kg, mice): 2.35 µM
- Cmax ([1]; read-out: C max Plasma, single IP dose 2.5 mg/kg, mice): 3.65 µM
- AUC Brain [1, 5]: 0.2302
- AUC Plasma [1, 5]: 2.805
- C max Brain [1, 5]: 0.245 µM
- Ratio (%) brain to plasma [1, 5]: 10%
- T max Time [1, 5]: 1 h
- AUC Brain ([1]; single IP dose 2.5 mg/kg, mice): 0.3152
- AUC Plasma ([1]; single IP dose 2.5 mg/kg, mice): 6.482
- C max Brain ([1]; single IP dose 2.5 mg/kg, mice): 0.445 µM
- Ratio (%) brain to plasma ([1]; single IP dose 2.5 mg/kg, mice): 12%
- T max Time ([1]; single IP dose 2.5 mg/kg, mice): 1 h
- IC50 (SRC): 1.3 nM

Compound: Cc1cn(-c2cc(NC(=O)c3ccc(C)c(Nc4nccc(-c5cccnc5)n4)c3)cc(C(F)(F)F)c2)cn1 [Nilotinib]
- IC50 (PDGFR-β): < 60 nM
- IC50 (PDGFR-α; read-out: IC50 PDGFR-α): < 71 nM
- IC50 (DDR1/2): < 6 nM
- Aβ42 (ELISA) in Aβ42-transfected B35 cells (in words) [2]: reduce Aβ42
- Tmax [1, 6]: 1 h
- AUC [1, 7]: 174 µM·h
- Cmax [1, 7]: 33.7 µM
- effect on total tau levels (in words) (APP mice; [8]): no effect
- reduction of phospho-tau (ser396) compared with DMSO (APP mice; [8]): 28%
- Insoluble human Aβ vs DMSO (in words) (APP mice; [8]): significantly decreased
- inhibition of Src (SRC): do not appear to inhibit Src

Compound: Cc1cn(-c2cc(NC(=O)c3ccc(C)c(Nc4nccc(-c5cnccn5)n4)c3)cc(C(F)(F)F)c2)cn1 [Radotinib]
- IC50 (PDGFR-β): 130 nM
- IC50 (PDGFR-α; read-out: IC50 PDGFR-α): 75.5 nM
- IC50 (c-Kit): > 1300 nM
- IC50 (DDR1/2): < 180 nM
- IC50 (Abl): 34 nM
- CNS penetrance (in words) [1]: medium-to-high
- time after administration at which agents are completely washed out of the brain ([1]; mice): 4 to 5 h
- Tmax [1, 6]: 1 h
- Kp [1, 6]: 0.05
- AUC [1, 7]: 83.3 µM·h
- Cmax [1, 7]: 24.4 µM
- AUC Brain ([1]; single IP dose 10 mg/kg, mice): 1.839
- C max Brain ([1]; single IP dose 10 mg/kg, mice): 1.004 µM
- effect on phosphorylated tau levels (in words) (APP mice; [8]): no effect
- effect on total tau levels (in words) (APP mice; [8]): no effect
- Insoluble human Aβ vs DMSO (in words) (APP mice; [8]): significantly decreased
- α-syn levels, ELISA, compared to DMSO (A53T mice; [9]): no difference
- α-syn levels, Western blot, compared to DMSO (A53T mice; [9]): no change
- inhibition of Src (SRC): do not appear to inhibit Src
- IC50 (SRC): > 2000 nM
